Test results published in patent US20220054513A1, “COMBINATION COMPOSITIONS COMPRISING A BETA-LACTAMASE INHIBITOR” (VenatoRx Pharmaceuticals, Inc., priority 2018, published 2022).
Like-named read-outs stand apart in the source and are kept apart here.

Legend:
[1] = tested on: MDR-Acinetobacter; assay: broth microdilution MIC of cefiderocol +/- Compound 1 in IDM, panel of 40 MDR Acinetobacter; type: cell-based, A. baumannii; conditions: for MIC: read-out: Minimum inhibitory concentration (MIC)
[2] = tested on: MDR-Pseudomonas; assay: broth microdilution MIC of cefiderocol +/- Compound 1 in IDM, panel of 16 MDR Pseudomonas aeruginosa; type: cell-based, P. aeruginosa; conditions: for MIC: Pseudomonas aeruginosa, read-out: Minimum inhibitory concentration (MIC)
[3] = tested on: metallo- and serine-β-lactamase expressing CRE; assay: checkerboard assay of cefiderocol and Compound 1 in IDM, 22 CRE isolates; type: cell-based, Enterobacteriaceae; conditions: Compound 1 0 μg/mL
[4] = Acinetobacter baumannii, panel of 40 MDR Acinetobacter, IDM
[5] = panel of 16 MDR Pseudomonas aeruginosa, IDM

CC(C)(O/N=C(\C(=O)N[C@@H]1C(=O)N2C(C(=O)[O-])=C(C[N+]3(CCNC(=O)c4ccc(O)c(O)c4Cl)CCCC3)CS[C@H]12)c1csc(N)n1)C(=O)O [FDC, cefiderocol]
Minimum inhibitory concentration (MIC) ([1]; A. baumannii 165039, IDM): 0.125 µg/mL | Minimum inhibitory concentration (MIC) ([1]; A. baumannii CDC-0056, IDM): 0.125 µg/mL | MIC ([1]; Acinetobacter baumannii, A. baumannii 0045, IDM): 0.5 µg/mL | MIC ([1]; Acinetobacter baumannii, A. baumannii 157070, IDM): 0.25 µg/mL | MIC ([1]; Acinetobacter baumannii, A. baumannii 157071, IDM): 0.03 µg/mL | MIC ([1]; Acinetobacter baumannii, A. baumannii 157072, IDM): 0.25 µg/mL | MIC ([1]; Acinetobacter baumannii, A. baumannii 157074, IDM): 0.06 µg/mL | MIC ([1]; Acinetobacter baumannii, A. baumannii 157079, IDM): 0.5 µg/mL | MIC ([1]; Acinetobacter baumannii, A. baumannii 157865, IDM): 4 µg/mL | MIC ([1]; Acinetobacter baumannii, A. baumannii 161754, IDM): 0.25 µg/mL | MIC ([1]; Acinetobacter baumannii, A. baumannii 161763, IDM): 0.5 µg/mL | MIC ([1]; Acinetobacter baumannii, A. baumannii 163169, IDM): 0.03 µg/mL | MIC ([1]; Acinetobacter baumannii, A. baumannii 164899, IDM): 0.25 µg/mL | MIC ([1]; Acinetobacter baumannii, A. baumannii CDC-0033, IDM): 0.5 µg/mL | MIC ([1]; Acinetobacter baumannii, A. baumannii CDC-0035, IDM): 0.25 µg/mL | MIC ([1]; Acinetobacter baumannii, A. baumannii CDC-0036, IDM): 1 µg/mL | MIC ([1]; Acinetobacter baumannii, A. baumannii CDC-0037, IDM): 4 µg/mL | MIC ([1]; Acinetobacter baumannii, A. baumannii CDC-0052, IDM): 8 µg/mL | MIC ([1]; Acinetobacter baumannii, A. baumannii CDC-0063, IDM): 0.5 µg/mL | MIC ([1]; Acinetobacter baumannii, A. baumannii CDC-0070, IDM): 0.25 µg/mL | MIC ([1]; Acinetobacter baumannii, A. baumannii CDC-0078, IDM): 0.5 µg/mL | MIC ([1]; Acinetobacter baumannii, A. baumannii CDC-0083, IDM): 1 µg/mL | MIC ([1]; Acinetobacter baumannii, A. baumannii CDC-0088, IDM): 8.1 µg/mL | MIC ([1]; Acinetobacter baumannii, A. baumannii CDC-0101, IDM): 0.06 µg/mL | MIC ([1]; Acinetobacter baumannii, A. baumannii CDC-0102, IDM): 1 µg/mL | MIC ([1]; Acinetobacter baumannii, A. baumannii GM235, IDM): 1 µg/mL | MIC ([1]; Acinetobacter baumannii, A. baumannii GM236, IDM): 0.03 µg/mL | MIC ([1]; Acinetobacter baumannii, A. baumannii GM237, IDM): 0.25 µg/mL | MIC ([1]; Acinetobacter baumannii, A. baumannii GM238, IDM): 0.25 µg/mL | MIC ([1]; Acinetobacter baumannii, A. baumannii GM239, IDM): 2 µg/mL | MIC ([1]; Acinetobacter baumannii, A. baumannii SI-141, IDM): 4 µg/mL | MIC ([1]; Acinetobacter baumannii, ATCC17978, A. baumannii ATCC 17978, IDM): 0.25 µg/mL | MIC ([1]; Acinetobacter baumannii, NCTC13301, A. baumannii NCTC 13301, IDM): 1 µg/mL | MIC ([1]; Acinetobacter baumannii): 0.125 µg/mL | MIC50 [1, 4]: 0.25 µg/mL | MIC90 [1, 4]: 4 µg/mL | MIC ([2]; P. aeruginosa 40, IDM): 4 µg/mL | MIC ([2]; P. aeruginosa 451, IDM): 4 µg/mL | MIC ([2]; P. aeruginosa 635, IDM): 0.5 µg/mL | MIC ([2]; P. aeruginosa 152021, IDM): 0.25 µg/mL | MIC ([2]; P. aeruginosa 1013996, IDM): 0.25 µg/mL | MIC ([2]; P. aeruginosa 1121828, IDM): 1 µg/mL | MIC ([2]; P. aeruginosa 1131170, IDM): 2 µg/mL | MIC ([2]; P. aeruginosa 1179543, IDM): 2 µg/mL | MIC ([2]; P. aeruginosa CDC-0054, IDM): 0.5 µg/mL | MIC ([2]; P. aeruginosa CDC-0064, IDM): 0.5 µg/mL | MIC ([2]; P. aeruginosa CDC-0095, IDM): 0.059 µg/mL | MIC ([2]; P. aeruginosa CDC-0103, IDM): 4 µg/mL | MIC ([2]; P. aeruginosa CDC-0108, IDM): 0.25 µg/mL | MIC ([2]; P. aeruginosa CDC-0110, IDM): 8 µg/mL | MIC ([2]; P. aeruginosa CDC-0111, IDM): 0.059 µg/mL | MIC [2]: 0.125 µg/mL | MIC50 [2, 5]: 0.5 µg/mL | MIC90 [2, 5]: 4 µg/mL | % of strains inhibited ([3]; cefiderocol 0.06 μg/mL): 5% | % of strains inhibited ([3]; cefiderocol 0.125 μg/mL): 5% | % of strains inhibited ([3]; cefiderocol 0.25 μg/mL): 5% | % of strains inhibited ([3]; cefiderocol 0.5 μg/mL): 15% | % of strains inhibited ([3]; cefiderocol 1 μg/mL): 20% | % of strains inhibited ([3]; cefiderocol 2 μg/mL): 60% | % of strains inhibited ([3]; cefiderocol 4 μg/mL): 75% | % of strains inhibited ([3]; cefiderocol 8 μg/mL): 90% | % of strains inhibited ([3]; cefiderocol 16 μg/mL): 90% | % of strains inhibited ([3]; cefiderocol 32 μg/mL): 95%
